Assay results reported in patent US5663333A, “Substituted 1,4-diazapine caprolactams useful for treatment of HIV disease” (The DuPont Merck Pharmaceutical Company, priority 1993, dated 1997).

Key:
[1] = system: HIV(3B) or HIV(RF) in MT-2 cells; experiment: HIV Low Multiplicity Assay (whole cell infectivity assay); format: cell-based; settings: Human immunodeficiency virus 1, MT2, 168 h, 7 days, XTT, 90% protection from virus induced cell death
Method: Materials: MT-2, a human T-Cell line, was cultured in RPMI medium supplemented with 5% (v/v) heat inactivated fetal calf serum (FCS), L-glutamine and gentamycin (GIBCO). Human immunodeficiency virus strains HIV (3B) and HIV (RF) were propagated in H-9 cells in RPMI with 5% FCS. XTT, benzene-sulfonic acid, 3,3'-[1-[(phenyl-amino) carbonyl]-3,4-tetrazolium]bis(4-methoxy-6-nitro)-, sodium salt, was obtained from Starks Associates, Inc.
Method: Test compounds were dissolved in dimethylsulfoxide to 5 mg/ml and serially diluted into RPMI medium to ten times the desired final concentration. MT-2 cells (5×10^4 /0.1 mL) were added to each well of a 96 well culture plate and 0.02 mL of the appropriate test compound solution was added to the cells such that each compound concentration was present in two wells. The cells and compounds were allowed to sit for 30 minutes at room temperature. […] The percentage of cells protected from virus induced cell death was determined by the degree of metabolism of the tetrazolium dye, XTT. In living cells, XTT was metabolized to a colored formazan product which was quantitated spectrophotometrically at 450 nm. […]
In the Tables herein the IC90 values were determined using the assay conditions described above under HIV Low Multiplicity Assay. […]

HIV-1 protease = molecular target: T1, HIV-1 protease (Human immunodeficiency virus type 1 group M subtype B, UniProt P04585); experiment: HIV Protease Inhibition Assay - HPLC Method; format: biochemical; settings: single-chain tethered dimer of HIV protease, pH 5.5
T1 construct: synthetic gene coding for a single-chain tethered dimer of HIV protease; second copy of HIV protease joined in the same chain by a tether (single-chain tethered dimer); made in house
Method: Protease: Inclusion bodies of E. coli harboring plasmid containing plasmid T1718R with a synthetic gene coding for a single-chain tethered dimer of HIV protease were prepared as described in Cheng et al. (Proc. Natl. Acad. Sci. USA, 87, 9660-9664, 1990). Active protease was prepared as described therein by extraction with 67% acetic acid, dilution 33-fold with water, dialysis against water and then against a "refolding buffer" consisting of 20 mM MES, 1 mM dithiothreitol and 10% glycerol. Protease was stored as a stock preparation at 10 uM in refolding buffer. […]
HPLC measurement of product formation: The product (aminobenzoyl-Ala--Thr--His--Gln--Val--Tyr) was separated from substrate on a Pharmacia MonoQ anion exchange column. […] Detection with a Shimadzu model RF535 fluorescence monitor was at 330 nm (excitation) and 430 (emission). The Ki was calculated from the formula Ki=I/(((Km+S-FA*S)/(FA*Km))-1) where I=inhibitory concentration, S=substrate concentration, FA=fractional activity=cm peak height with inhibitor/cm peak height without inhibitor, and Km=Michaelis constant=20 uM.
In the Tables herein the Ki values were determined using the assay conditions described above under HIV Protease Inhibition Assay-HPLC Method. […]

| SMILES | IC90 [1] | Ki (HIV-1 protease) |
| --- | --- | --- |
| O=C1N[C@H](Cc2ccccc2)[C@H](O)CN[C@H]1Cc1ccccc1 [Example 1] | < 10 µg/mL | < 0.01 µM |
| O=C1N[C@H](Cc2ccccc2)[C@H](O)CN(Cc2ccccc2)[C@H]1Cc1ccccc1 [Example 24] | < 10 µg/mL | 0.01 to 1 µM |
